Experimental data as given in patent US8697728B2, “Perhexiline for use in the treatment of hypertrophic cardiomyopathy (HCM)” (The University of Birmingham, priority 2009, dated 2014).

What was measured:
symptomatic HCM patients [1] = assay: Side effects and deaths during the study; format: in vivo; details: perhexiline group (n=25), during the first week of treatment
Excerpt: The study was a randomized, double blind, placebo-controlled parallel-group design of minimum 3 months duration. […] The pre-defined primary end point was peak oxygen consumption (peak VO2). Pre-defined secondary end points were symptomatic status, resting myocardial energetics (PCr/γ-ATP ratio) and diastolic function at rest and during exercise (nTTPF).
Diabetic patients were also excluded to maintain the blindness of the study as Perhexiline may lead to a reduction in plasma glucose in such patients necessitating a reduction in anti-diabetic therapy. 46 consecutive consenting patients who met these entry criteria were recruited into the study.
Following baseline studies, patients were randomized in a double-blind fashion to receive either perhexiline (n=25) or placebo (n=21) 100 mg OD. Serum perhexiline levels were obtained at 1 and 4 weeks after initiation of the drug. Dose adjustments were advised by an unblinded physician according to serum level to achieve therapeutic level and to avoid drug toxicity. Identical dosage adjustments were also made for randomly allocated placebo-treated patients by the unblinded observer to ensure that blinding of the investigators was maintained. At the end of study, patients were re-evaluated as described earlier.

symptomatic HCM patients [2] = assay: Cardiopulmonary exercise test (peak oxygen consumption), randomized double-blind placebo-controlled study; format: in vivo, human; details: p=0.003 vs placebo
Excerpt: (§1) The study was approved by the South Birmingham Research Ethics Committee and the investigation conforms with the principles outlined in the Declaration of Helsinki. All study participants provided written informed consent. The study was a randomized, double blind, placebo-controlled parallel-group design of minimum 3 months duration. FIG. 1 represents a flow chart of the study. The pre-defined primary end point was peak oxygen consumption (peak VO2). Pre-defined secondary end points were symptomatic status, resting myocardial energetics (PCr/γ-ATP ratio) and diastolic function at rest and during exercise (nTTPF). 33 controls of similar age and gender distribution were recruited for comparison with baseline data of HCM patients. […]
Following baseline studies, patients were randomized in a double-blind fashion to receive either perhexiline (n=25) or placebo (n=21) 100 mg OD. […] At the end of study, patients were re-evaluated as described earlier.
Data were analyzed using SPSS ver. 15.0 for Window and Microsoft Office Excel 2007, and expressed as Mean±Standard Deviation (SD). Comparison of continuous variables between Perhexiline and Placebo baseline data were determined by unpaired Student's t-test (2-tail) if variables were normally distributed and the Mann-Whitney U-test if the data were non-normally distributed. […]

symptomatic HCM patients [3] = assay: Radionuclide ventriculography (diastolic ventricular filling, nTTPF); format: in vivo, human; details: perhexiline group, p=0.03 vs placebo response
Excerpt: as §1, with “(nTTPF).” for “(nTTPF). 33 controls of similar age and gender distribution were recruited for comparison with baseline data of HCM patients.”
Diastolic filling were assessed by equilibrium R-wave gated blood pool scintigraphy using a standard technique at rest and during graded semi erect exercise on a cycle ergometer (Atherton J J, Moore T D, Lele S S et al. Diastolic ventricular interaction in chronic heart failure. Lancet 1997;349 (9067):1720-1724; Lele S S, Macfarlane D, Morrison S, Thomson H, Khafagi F, Frenneaux M. Determinants of exercise capacity in patients with coronary artery disease and mild to moderate systolic dysfunction. Role of heart rate and diastolic filling abnormalities. Eur Heart J 1996;17(2):204-212). […]
Data were analyzed using SPSS ver. 15.0 for Window and Microsoft Office Excel 2007, and expressed as Mean±Standard Deviation (SD). […]

C1CCC(C(CC2CCCCN2)C2CCCCC2)CC1 (centres unmarked) [perhexiline, 2-(2,2-dicyclohexylethyl) piperidine]
Side effect: dizziness (number of patients) (symptomatic HCM patients [1]): 2
Side effect: transient nausea (number of patients) (symptomatic HCM patients [1]): 3
Effect on peak oxygen consumption (peak VO2, exercise capacity), in words (symptomatic HCM patients [2]; FIG. 3A legend): increases
Change in Peak VO2 after treatment (increase) (symptomatic HCM patients [2]; HCM patients, perhexiline group, after treatment vs baseline): 2.09 mL/min/kg
εnTTPF (change of nTTPF from rest to exercise) on therapy (symptomatic HCM patients [3]): 0.00 ± 0.003 s
